From US20250002865A1, “METHOD FOR PRODUCING ORGANISM, AND METHOD FOR PROMOTING DIFFERENTIATION OF HUMAN ADIPOSE-DERIVED STEM CELLS INTO VASCULAR ENDOTHELIAL CELLS” (TOPPAN Holdings Inc., priority 2021, published 2025)
Where “and” joins values, the source holds several entries; their conditions need not be identical. Equal entries are not always repeated.

How the values were obtained:
[1] = system: cell balls of mature adipocytes and cells recovered from ADSC tissue construct; conditions: VEGF 50 ng/mL in EGM-2 with 10 μg/mL insulin and 5 μM ALK-5 inhibitor, 7 days
Experimental: Regarding the produced tissue construct, 5 μL (equivalent to one cell ball) of the mixture (equivalent to 40 cell balls) was seeded on each well of a low-adhesion 96-well plate (IWAKI #4860-800LP).
The cell ball seeded in the low-adhesion 96-well plate was incubated in a 37° C. incubator for 15 minutes to carry out gelation, and 300 μL of EGM-2 containing insulin of a final concentration of 10 μg/mL, an AKL-5 inhibitor of 5 μM, and VEGF of 50 ng/mL was added thereto.
(§1) After 24 hours of culture, cells were transferred to a low-adhesion 24-well plate (IWAKI #4820-800LP), and 2 mL of the above EGM-2 or KBM was added thereto. The culture medium was changed every 2 to 3 days until the 7th day of culture.
The fluorescence imaging of the tissue construct was carried out as in Production Example 4, except that various primary antibody solutions and the corresponding secondary antibody solutions were used. […]
For observation, the cell ball was placed directly on a complete plate of a Confocal Quantitative Image Cytometer CQ1 (Yokogawa Electric Corporation), and the stained tissue construct was observed using the Confocal Quantitative Image Cytometer CQ1. […]

[2] = system: cell balls of mature adipocytes and cells recovered from ADSC tissue construct
Experimental: Isolated ADSC was suspended in an EGM-2 medium, seeded in a 10-cm dish, and incubated at 37° C. The culture medium was changed every 2 days, and culture was carried out for 7 days to obtain a tissue construct. From this tissue construct, cells including ADSC, ADSC-derived vascular endothelial cells, and vascular endothelial progenitor cells were recovered.
The total number of cells of the tissue construct (cell ball) used was 4.0×10^4 cells/ball, and the mature adipocytes and the above-described recovered cells were used a ratio of 3:2.5 for the production.
The cell ball seeded in the low-adhesion 96-well plate was incubated in a 37° C. incubator for 15 minutes to carry out gelation, and 300 μL of EGM-2 or KBM was added thereto. […] In addition, EGM-2 or KBM, containing only insulin of a final concentration of 10 μg/mL and an ALK-5 inhibitor of 5 μM, was used as a control.
as §1
The fluorescence imaging of the tissue construct was carried out as in Production Example 4, except that an anti-von Willebrand factor (vWF) antibody diluted 100-fold in a 1% BSA/PBS solution was used as a primary antibody solution and an Alexa Fluor 647-labeled anti-rabbit IgG antibody solution diluted 200-fold in 1% BSA/PBS solution was used as a secondary antibody solution. The vWF was used as a marker for vascular endothelial cells. In addition, for observation, the cell ball was placed directly on a complete plate of a Confocal Quantitative Image Cytometer CQ1 (Yokogawa Electric Corporation), and the stained tissue construct was observed using the Confocal Quantitative Image Cytometer CQ1 with laser excitation light at 640 nm.

[3] = system: human adipose stem cell (ADSC); conditions: 5 μM in EGM-2, 7 days, compared with EGM-2 without ALK5 inhibitor
Experimental: The culture medium was changed every 2 days, and culture was carried out for 7 days after seeding to obtain a tissue construct.
Fluorescence imaging of the tissue construct was carried out according to the following procedure. A transwell containing the obtained tissue construct was transferred to a 24-well plate. After washing with 2 mL of PBS, the tissue was fixed overnight under the condition of 4° C. using 2 mL of 4% PFA. Washing was carried out three times using 2 mL of PBS. Cells were subjected to permeabilization treatment for 7 minutes under room temperature conditions by using 0.05% Triton/PBS (500 μL in the transwell and 500 μL outside the transwell), and washing was carried out three times using 2 mL of PBS.
The tissue was subjected to blocking treatment for 1 hour under room temperature conditions by using a 1% BSA/PBS solution (500 μL in the transwell and 500 μL outside the transwell). The BSA solution was aspirated, and 100 μL of a primary antibody solution (an anti-CD31 antibody diluted 100-fold in a 1% BSA/PBS solution) was added (50 μL in the transwell and 50 μL outside the transwell). A wet tissue paper was placed under the plate, and the plate was covered with an aluminum foil and incubated overnight under the condition of 4° C. […]

[4] = system: human adipose stem cell (ADSC); conditions: 5 μM in EGM-2, 7 days
Experimental: The culture medium was changed every 2 days, and culture was carried out for 7 days to obtain a tissue construct. Thereafter, the ADSC was gently detached while leaving cell surface proteins, by incubation for 5 minutes using 0.25% Trypsin, recovered from the dish, and suspended in 1 mL of DMEM, and the number of cells was counted.
The ratio of vascular endothelial cells in the tissue construct was analyzed by the flow cytometry analysis using BD Facsmelody (registered trademark) cell sorter (Becton, Dickinson and Company). The tissue construct recovered as described above was centrifuged (100 g, 5 minutes, 4° C.). […] Thereafter, cells were centrifuged (100 g, 5 minutes, 4° C.) to wash the cells, and the pelleted cells were suspended in a buffer, and 10,000 events were recorded. Further, an isotype control for the conjugated antibody was measured simultaneously. […]
The ratio of vascular endothelial cells in the sample was analyzed by the flow cytometry analysis using BD Facsmelody (registered trademark) cell sorter (Becton, Dickinson and Company). […] Thereafter, cells were centrifuged (100 g, 5 minutes, 4° C.) to wash the cells, and the pelleted cells were suspended in a buffer, and 10,000 events were recorded. Further, an isotype control for the conjugated antibody was measured simultaneously. […]

[5] = system: human adipose stem cell (ADSC); conditions: 5 μM in EGM-2 for 7 days, then 24 hours on Matrigel; compared with EGM-2 without ALK5 inhibitor
Experimental: The culture medium was changed every 2 days, culture was carried out for 7 days. Thereafter, the ADSC was separated from the dish using trypsin/EDTA and suspended in 1 mL of DMEM, and the number of cells was counted. Further, the recovered ADSC was seeded on a 24-well plate previously coated with Matrigel at concentrations of 1.0×10^5 cells/dish, 1.5×10^5 cells/dish, and 2.0×10^5 cells/dish, and incubated at 37° C. for 24 hours. Thereafter, the morphology of the tissue construct was evaluated with a phase contrast microscope.

Row | Molecule | proportion of vWF-positive vs CD34-positive cells among total CD31-positive cells [1] | vascular network formation in cell ball [1] | vascular network, number of branches of blood vessels, vs control without VEGF ([2]; VEGF 0.5, 20, 50 or 100 ng/mL in EGM-2 or KBM with 10 μg/mL insulin and 5 μM ALK-5 inhibitor, 7 days) | vascular network, number of branches of blood vessels, vs culture medium containing leptin ([2]; VEGF-containing medium vs leptin 1 μg/mL, both with insulin and 5 μM ALK-5 inhibitor, 7 days) | vascular network, amount of blood vessels among VEGF concentrations ([2]; culture medium containing more than 20 ng/mL of VEGF) | vascular network formation by CD31 staining [3] | ratio of vascular endothelial cells (CD31+) based on number of total cells recovered [4] | lumen formation / vascular network on Matrigel [5]
1 | VEGF | the proportion of vWF-positive cells with respect to the total CD31-positive cells was higher than the proportion of CD34-positive cells | a vascular network was also formed | the number of branches of blood vessels is large as compared with the control cell ball | the number of branches of blood vessels is large as compared with the cell ball cultured in a culture medium containing leptin | a vascular network having still more blood vessels was formed | – | – | –
2 | Cc1cccc(-c2n[nH]cc2-c2ccc3ncccc3n2)n1 [ALK5 inhibitor, 2-[3-(6-methyl-2-pyridinyl)-1H-pyrazol-4-yl]-1,5-naphthyridine] | – | – | – | – | – | a vascular network in which the number of branches is larger is formed | 29.29% and 32.4% | lumen formation is further progressed
